From BindingDB's records for doi:10.1021/jm00107a051 (Merck Sharp and Dohme Research Laboratories, 1991)

Biological target: T1, Dimer of Gag-Pol polyprotein [489-587] (Human immunodeficiency virus 1, UniProt P12497)
T1 construct: 489-587
Assay: Protease Inhibition Assay
Conditions: pH 5.5; 30 °C
Protocol: Sensitivity of HIV-1 protease activity to protease inhibitors was determined by a peptide substrate cleavage assay. Protease products were analyzed on a reverse-phase high-pressure liquid chromatograph.

With `CC(C)(C)OC(=O)N[C@@H](Cc1ccccc1)[C@@H](O)C[C@@H](Cc1ccccc1)C(=O)N[C@H]1c2ccccc2[C@@H](N)[C@H]1O` [tert-butyl N-[(2S,3S,5R)-5-{[(1S,2R,3R)-3-amino-2-hydroxy-2,3-dihydro-1H-inden-1-yl]carbamoyl}-5-benzyl-3-hydroxy-1-phenylpentan-2-yl]carbamate] as the compound, how does the IC50 read?
Its IC50 is 1.9 nM.

Which IC50 does the source give for `CC(C)(C)OC(=O)N[C@@H](Cc1ccccc1)[C@@H](O)C[C@@H](Cc1ccccc1)C(=O)N[C@@H]1c2ccccc2C[C@@H]1O` [tert-butyl N-[(2S,3S,5R)-5-benzyl-3-hydroxy-5-{[(1R,2S)-2-hydroxy-2,3-dihydro-1H-inden-1-yl]carbamoyl}-1-phenylpentan-2-yl]carbamate] here?
The IC50 was 229 nM.

With `CC(C)(C)OC(=O)N[C@@H](Cc1ccccc1)[C@@H](O)C[C@@H](Cc1ccccc1)C(=O)N[C@H]1c2ccccc2C[C@H]1C(N)=O` [tert-butyl N-[(2S,3S,5R)-5-benzyl-5-{[(1R,2R)-2-carbamoyl-2,3-dihydro-1H-inden-1-yl]carbamoyl}-3-hydroxy-1-phenylpentan-2-yl]carbamate] as the compound, how does the IC50 read?
The IC50 was 1.8 nM.

Which IC50 does the source give for `CC(C)(C)OC(=O)N[C@@H](Cc1ccccc1)[C@@H](O)C[C@@H](Cc1ccccc1)C(=O)NC1Cc2ccccc2C1` [tert-butyl N-[(2S,3S,5R)-5-benzyl-5-(2,3-dihydro-1H-inden-2-ylcarbamoyl)-3-hydroxy-1-phenylpentan-2-yl]carbamate] here?
The IC50 was 19 nM.
